Test results from PMC7802073, “Small Molecule Inhibitors of the Bacterioferritin (BfrB)–Ferredoxin (Bfd) Complex Kill Biofilm-Embedded Pseudomonas aeruginosa Cells” (ACS Infectious Diseases, 2020).
Values joined by “and” are separate entries in the source; they are usually repeats but may differ in a detail not shown here. Identical values can stand only once.

How the values were obtained:
Format in all cases: cell-based, Pseudomonas aeruginosa
P. aeruginosa PAO1 [1] = experiment: Half maximal inhibitory concentration (IC50) on planktonic growth, CFU/mL enumeration; details: Pseudomonas aeruginosa, PAO1, defined media, 24 h, 35 °C, 2% DMSO, this work, read-out: IC50
Protocol: Chemicals were purchased from Fisher Scientific unless otherwise stated. P. aeruginosa PAO1 was obtained from the University of Washington Genome center.[81] The PAO1 strain expressing enhanced yellow fluorescent protein (EYFP) was prepared previously.[26] Clinical isolates of P. aeruginosa were purchased from JMI Laboratories (North Liberty, IA, USA). […] Starter cultures were grown from a single colony at 37 °C and shaking at 220 rpm for 14 h in 5 mL PI media supplemented with 10 μM Fe. Pellicle biofilms were cultured for 48 h at 30 °C in PI media supplemented with 20 μM Fe. Surface-attached biofilms were cultured in AB minimal media[82] supplemented with trace metals [0.15 μM (NH4)2MoO4, 3 μM CuSO4, 2 μM Co(NO3)2, 9.4 μM Na2B4O7, and 7.6 μM ZnSO4], 3 mM glucose and 15 μM Fe. Iron supplementation was carried out by addition of a small volume of filter-sterilized 10 mM (NH4)2Fe(SO4)2 (pH ∼ 2.0) solution. […]; IC50 values (Table 1, Figure S1) were determined as reported previously[25] with small modifications. In brief: precultures of P. aeruginosa PAO1 (5 mL) were grown in LB media for 13 h at 37 °C and 220 rpm in 50 mL conical tubes (VWR International, PA). The cells were centrifuged for 5 min at 4000 rpm and 4 °C, washed two times and then diluted in buffer (100 mM KH2PO4 and 15 mM (NH4)2SO4) to an optical density at 600 nm (OD600) of 0.1. A small volume of compound stock solution (10 mM) was transferred to a microcentrifuge tube, initially diluted with DMSO to 20 μL, and then diluted to 1 mL with preculture cell suspension in defined media with OD600 = 0.0001, so the final DMSO concentration is 2%. The resultant cell suspension (200 μL) was transferred to a clear-bottom polystyrene 96-well plate (VWR) covered with a lid and incubated at 35 °C and 205 cpm for 24 h in a Synergy H1 microplate reader (Biotek Instruments Inc., Vermont). The cell cultures were serially diluted and then plated on PI Agar (PIA; BD biosciences) plates for enumeration of viable cells (CFU/mL). The % growth was calculated from the ratio CFU/mL(treated)/CFU/mL(untreated control). To calculate the IC50 values, the % growth was plotted as a function of compound concentration, expressed as log[compound] (μM), and fitted to the 4-parameter logistic model describing the sigmoid-shaped response pattern (eq 1),[84] where b is the slope factor, max is the upper asymptote (plateau), and min is the lower asymptote. Values are the average and standard deviation from three independent experiments. [drawing 1] 1

[2] = system: EYFP-expressing P. aeruginosa PAO1 pellicles; experiment: Viable cells (CFU/mL) dispersed from pellicle biofilms; details: 24 h; for viable cell count relative to the untreated pellicle (% cell survival): KM-5-25 40 μM (0.6× IC50) or KM-5-66 20 μM (0.5× IC50)
Protocol: Pellicle biofilms of EYFP-expressing P. aeruginosa PAO1 or clinical isolates were grown in PI media supplemented with 20 μM Fe. Starter cultures were diluted to OD600 = 0.001 in 4 mL media, placed in 35 × 10 mm Petri dishes and incubated statically at 30 °C for 48 h. The pellicles were transferred onto circular (1.5 cm diameter) glass coverslips by gently allowing the surface of a coverslip to contact a pellicle. The pellicle-adhered coverslip was washed in PBS and then deposited on top of 1.5 mL AB challenge media contained in a well of a 12-well microplate, with the pellicle exposed to the media. […] The coverslip-adhered pellicles were exposed to challenge media at 30 °C for 24 h, changing the challenge media every 12 h by transferring the pellicle-adhered coverslip to a new plate containing prewarmed challenge media.
Pellicle biofilms were grown as described above. Planktonic and loosely attached cells were washed (3 times) by immersing the coverslip-adhered pellicles (biofilm facing up) into a well of a 12-well plate containing 3 mL PBS, and incubating (5 min) with gentle rocking. To remove the pellicle from the coverslip, break the extracellular matrix and release cells from the biofilm, the coverslip-adhered pellicle was placed in a 50 mL conical tube containing a 2 mL suspension of zirconia beads (0.1 mm diameter, BioSpec Products), 10 mL PBS, 0.2 μg/mL alginate lyase and 0.2 μg/mL DNase. The resultant mixture was incubated at room temperature for 3 min, followed by vigorous vortexing for 4 min. After sedimentation of the zirconia beads, a 100 μL aliquot was used for serial dilution and plating on PIA plates for subsequent enumeration of viable cells (CFU/mL).

P. aeruginosa PAO1 [3] = experiment: microbe, parasite or virus in culture; details: for secreted pyoverdine relative to untreated control, fluorescence at 460 nm normalized to CFU/mL: KM-5-25 70 μM or KM-5-66 50 μM, 27 h, M63 media; for viability at 50 µM: Pseudomonas aeruginosa, PAO1, 27 h, read-out: viable cells relative to the untreated control
Protocol: Cultures of P. aeruginosa PAO1 treated with KM-5-25 (70 μM) or KM-5-66 (50 μM) were grown for 27 h prior to diluting the contents of each well in PBS (pH 7.4) and plating the cells on PIA plates for enumeration of CFU/mL. The 500-fold diluted solution was clarified by centrifugation and the pyoverdine in the cell-free supernatant was analyzed by acquiring fluorescence emission spectra (430–550 nm) with excitation at 400 nm (10 nm slit width) and emission at λmax = 460 nm (10 nm slit width) using a PerkinElmer LS50B spectrophotometer.
Figure S5. P. aeruginosa cells treated with 4-aminoisoindoline-1,3-dione derivatives overproduce pyoverdine. (A) P. aeruginosa cultures treated with KM-5-25 (70 µM) or KM-5-66 (50 µM) for 27 h have ~35% of the viable cells in the untreated control. (B) Fluorescence spectra from cell -free supernatant corresponding to untreated cultures ( solid line), treated with KM-5-25 (dashed line), or treated with KM-5-66 (dotted line). (C) Fluorescence intensity normalized to the number of viable […]
pyoverdine than cells in the untreated control. Averages and standard deviations for 3 biological replicates are shown. p < 0.01 denoted by ** and p < 0.001 by *** relative to untreated.
(1 picture or pasted object on this page, not shown here)

[4] = 2-day old pellicles, 1.2× IC50 (KM-5-25 80 μM, KM-5-66 50 μM)
[5] = compound at 1.2× IC50 combined with colistin 25× MIC (20 μM)
[6] = compound at 1.2× IC50 combined with colistin 25× MIC
[7] = compound at 1.2× IC50 combined with colistin 50× MIC (40 μM)
[8] = compound at 1.2× IC50 combined with colistin 50× MIC
[9] = compound at 1.2× IC50 combined with tobramycin 25× MIC (27 μM)
[10] = compound at 1.2× IC50 combined with tobramycin 25× MIC
[11] = compound at 1.2× IC50 combined with tobramycin 50× MIC

Structure (SMILES) | IC50 (P. aeruginosa PAO1 [1]) [µM] | % survival relative to cells in the pellicles prior to treatment ([2]; 2-day old pellicles, 0.3× IC50) | % survival relative to cells in the pretreated biofilm ([2]; 2-day old pellicles, 0.6× IC50) [%] | % survival relative to cells in the pretreated biofilm [2, 4] [%] | viable cell count relative to the untreated pellicle (% cell survival) ([2]; 2-day old pellicles) | % survival, combination treatment [2, 5] [%] | reduction of viable cells relative to treatment with colistin alone [2, 6] | % survival, combination treatment [2, 7] [%] | reduction of viable cells relative to treatment with colistin alone [2, 8] [log] | % survival, combination treatment [2, 9] [%] | reduction of viable cells relative to treatment with tobramycin alone [2, 10] | % survival, combination treatment [2, 11] [%] | reduction of viable cells relative to treatment with tobramycin alone [2, 11] [log] | secreted pyoverdine relative to untreated control, fluorescence at 460 nm normalized to CFU/mL (P. aeruginosa PAO1 [3]) [fold] | viability at 50 µM (P. aeruginosa PAO1 [3]) [%]
O=C1NC(=O)c2c(NCCCc3cc(O)cc(Cl)c3)cccc21 [KM-5-66, 4-((3-(3-Chloro-5-hydroxyphenyl)propyl)amino)isoindoline-1,3-dione] | 42 ± 6 | approximately 57% | ~21 | ~15 | 37% and 37.2% | ~0.3 | approximately 1.7 log | ~0.02 | ~1.9 | 5 | approximately 1.5 log | 1 | ~2 | ~5 | ~35
O=C1NC(=O)c2c(NCc3cc(Cl)ccc3O)cccc21 [KM-5-25, 4-((5-Chloro-2-hydroxybenzyl)amino)isoindoline-1,3-dione] | 69 ± 7 | – | ~38 | ~25 | 42% and 42.5% | ~1 | ~1 log | ~0.5 | ~0.7 | ~0.5 | approximately 2.5 log | ~0.003 | ~4.7 | ~5 | ~35
